Structures can show the parent of a compound that is named as a salt.
Tested on: NCI-H292 lung cancer cells
Experiment: FDA drug screening, complete media vs cholesterol-free media with simvastatin (TABLE 2)
Format: cell-based, human
Settings: NCI-H292 cells, FDA drug library screen, cholesterol-free media with simvastatin 0.04 μM

Structure (SMILES)	Cholesterol-free media + simvastatin (0.04 μM)
CCCNS(=O)(=O)Nc1ncnc(OCCOc2ncc(Br)cn2)c1-c1ccc(Br)cc1 [Macitentan]	1.697
Cc1ccc(NC(=O)c2ccc(CN3CCN(C)CC3)cc2)cc1Nc1nc(-c2cccnc2)cs1 [Masitinib]	0.9334
CN1CCc2c(c3ccccc3n2Cc2ccccc2)C1 [Mebhydrolin]	0.7768
CC1(C)S[C@@H]2[C@H](/N=C/N3CCCCCC3)C(=O)N2[C@H]1C(=O)O [Mecillinam]	1.033
Cc1ccc(Cl)c(Nc2ccccc2C(=O)O)c1Cl [Meclofenamate (sodium)]	1.009
CC(=O)O[C@]1(C(C)=O)CC[C@H]2[C@@H]3C[C@H](C)C4=CC(=O)CC[C@]4(C)[C@H]3CC[C@@]21C [Medroxyprogesterone acetate]	1.001
Cc1cccc(Nc2ccccc2C(=O)O)c1C [Mefenamic acid]	1.014
OC(c1cc(C(F)(F)F)nc2c(C(F)(F)F)cccc12)C1CCCCN1 (stereo not drawn) [Mefloquine (hydrochloride)]	1.137
CN1C(=O)/C(=C2/C(=O)Nc3ccccc32)c2ccccc21 [Meisoindigo]	0.9145
COc1ccc2[nH]cc(CCNC(C)=O)c2c1 [Melatonin]	1.501
CN(C)CCC=C1c2ccccc2C(C)(C)c2ccccc21 [Melitracen (hydrochloride)]	1.24

Same assay, conditions: NCI-H292 cells, FDA drug library screen, complete media

Structure (SMILES)	Complete Media
CCCNS(=O)(=O)Nc1ncnc(OCCOc2ncc(Br)cn2)c1-c1ccc(Br)cc1 [Macitentan]	1.56
Cc1ccc(NC(=O)c2ccc(CN3CCN(C)CC3)cc2)cc1Nc1nc(-c2cccnc2)cs1 [Masitinib]	0.8067
CN1CCc2c(c3ccccc3n2Cc2ccccc2)C1 [Mebhydrolin]	0.6781
CC1(C)S[C@@H]2[C@H](/N=C/N3CCCCCC3)C(=O)N2[C@H]1C(=O)O [Mecillinam]	1.74
Cc1ccc(Cl)c(Nc2ccccc2C(=O)O)c1Cl [Meclofenamate (sodium)]	1.718
CC(=O)O[C@]1(C(C)=O)CC[C@H]2[C@@H]3C[C@H](C)C4=CC(=O)CC[C@]4(C)[C@H]3CC[C@@]21C [Medroxyprogesterone acetate]	0.9291
Cc1cccc(Nc2ccccc2C(=O)O)c1C [Mefenamic acid]	0.8951
OC(c1cc(C(F)(F)F)nc2c(C(F)(F)F)cccc12)C1CCCCN1 (stereo not drawn) [Mefloquine (hydrochloride)]	1.057
CN1C(=O)/C(=C2/C(=O)Nc3ccccc32)c2ccccc21 [Meisoindigo]	1.461
COc1ccc2[nH]cc(CCNC(C)=O)c2c1 [Melatonin]	1.753
CN(C)CCC=C1c2ccccc2C(C)(C)c2ccccc21 [Melitracen (hydrochloride)]	1.495

Same assay, conditions: NCI-H292 cells, FDA library drug in cholesterol-free media with simvastatin 0.04 μM

Structure (SMILES)	Cholesterol-free media + simvastatin (0.04 μM)
CC(C)OC(=O)C(C(=O)OC(C)C)=C1SC=CS1 [Malotilate]	1.172
OC[C@@H](O)[C@@H](O[C@H]1O[C@H](CO)[C@@H](O)[C@H](O)[C@H]1O)[C@H](O)[C@@H](O)CO [Maltitol]	1.264
CNCCCC12CCC(c3ccccc31)c1ccccc12 [Maprotiline (hydrochloride)]	1.215

Same assay, conditions: NCI-H292 cells, FDA library drug in complete media

Structure (SMILES)	Complete Media
CC(C)OC(=O)C(C(=O)OC(C)C)=C1SC=CS1 [Malotilate]	0.8557
OC[C@@H](O)[C@@H](O[C@H]1O[C@H](CO)[C@@H](O)[C@H](O)[C@H]1O)[C@H](O)[C@@H](O)CO [Maltitol]	0.9377
CNCCCC12CCC(c3ccccc31)c1ccccc12 [Maprotiline (hydrochloride)]	0.924

Same assay, conditions: complete media minus cholesterol-free media + simvastatin; >0 enhanced anti-cancer activity, about 0 neutral, <0 antagonist

Structure (SMILES)	Difference
CC1(C)S[C@@H]2[C@H](/N=C/N3CCCCCC3)C(=O)N2[C@H]1C(=O)O [Mecillinam]	0.71
Cc1ccc(Cl)c(Nc2ccccc2C(=O)O)c1Cl [Meclofenamate (sodium)]	0.71
CN1C(=O)/C(=C2/C(=O)Nc3ccccc32)c2ccccc21 [Meisoindigo]	0.55
COc1ccc2[nH]cc(CCNC(C)=O)c2c1 [Melatonin]	0.25
CN(C)CCC=C1c2ccccc2C(C)(C)c2ccccc21 [Melitracen (hydrochloride)]	0.26

Same assay, conditions: complete media vs cholesterol-free media + simvastatin (0.04 μM); >0 enhanced anti-cancer activity, about 0 neutral, <0 antagonist

Structure (SMILES)	Difference
CCCNS(=O)(=O)Nc1ncnc(OCCOc2ncc(Br)cn2)c1-c1ccc(Br)cc1 [Macitentan]	−0.14
CC(C)OC(=O)C(C(=O)OC(C)C)=C1SC=CS1 [Malotilate]	−0.32
OC[C@@H](O)[C@@H](O[C@H]1O[C@H](CO)[C@@H](O)[C@H](O)[C@H]1O)[C@H](O)[C@@H](O)CO [Maltitol]	−0.33
CNCCCC12CCC(c3ccccc31)c1ccccc12 [Maprotiline (hydrochloride)]	−0.29
Cc1ccc(NC(=O)c2ccc(CN3CCN(C)CC3)cc2)cc1Nc1nc(-c2cccnc2)cs1 [Masitinib]	−0.13
CN1CCc2c(c3ccccc3n2Cc2ccccc2)C1 [Mebhydrolin]	−0.10
CC(=O)O[C@]1(C(C)=O)CC[C@H]2[C@@H]3C[C@H](C)C4=CC(=O)CC[C@]4(C)[C@H]3CC[C@@]21C [Medroxyprogesterone acetate]	−0.07
Cc1cccc(Nc2ccccc2C(=O)O)c1C [Mefenamic acid]	−0.12
OC(c1cc(C(F)(F)F)nc2c(C(F)(F)F)cccc12)C1CCCCN1 (stereo not drawn) [Mefloquine (hydrochloride)]	−0.08

Tested on: NCI-H292 lung cancer cells
Experiment: FDA drug screening, complete media vs cholesterol-free media without statin (TABLE 1)
Format: cell-based, human
Settings: Complete minus Cholesterol-free; >0 enhanced anti-cancer activity, about 0 neutral, <0 antagonist

Structure (SMILES)	Difference
CC(C)OC(=O)C(C(=O)OC(C)C)=C1SC=CS1 [Malotilate]	−0.31
Cc1ccc(NC(=O)c2ccc(CN3CCN(C)CC3)cc2)cc1Nc1nc(-c2cccnc2)cs1 [Masitinib]	−0.19
CN1CCc2c(c3ccccc3n2Cc2ccccc2)C1 [Mebhydrolin]	−0.31
COc1ccc2[nH]cc(CCNC(C)=O)c2c1 [Melatonin]	0.05

Same assay, conditions: Complete minus Cholesterol-free; greater than 0 enhanced anti-cancer activity, about 0 neutral, below 0 antagonist

Structure (SMILES)	Difference
CC1(C)S[C@@H]2[C@H](/N=C/N3CCCCCC3)C(=O)N2[C@H]1C(=O)O [Mecillinam]	−0.15
CN(C)CCC=C1c2ccccc2C(C)(C)c2ccccc21 [Melitracen (hydrochloride)]	−0.10

Same assay, conditions: Complete minus Cholesterol-free; greater than 0 enhanced anti-cancer activity, about 0 neutral, below 0 antagonists

Structure (SMILES)	Difference
CCCNS(=O)(=O)Nc1ncnc(OCCOc2ncc(Br)cn2)c1-c1ccc(Br)cc1 [Macitentan]	−0.48
Cc1ccc(Cl)c(Nc2ccccc2C(=O)O)c1Cl [Meclofenamate (sodium)]	−0.59
Cc1cccc(Nc2ccccc2C(=O)O)c1C [Mefenamic acid]	−0.58
OC(c1cc(C(F)(F)F)nc2c(C(F)(F)F)cccc12)C1CCCCN1 (stereo not drawn) [Mefloquine (hydrochloride)]	−0.49

Same assay, conditions: NCI-H292 cells in cholesterol-free media without statin

Structure (SMILES)	Cholesterol-free
CCCNS(=O)(=O)Nc1ncnc(OCCOc2ncc(Br)cn2)c1-c1ccc(Br)cc1 [Macitentan]	1.592
Cc1ccc(Cl)c(Nc2ccccc2C(=O)O)c1Cl [Meclofenamate (sodium)]	1.453
Cc1cccc(Nc2ccccc2C(=O)O)c1C [Mefenamic acid]	2.136
OC(c1cc(C(F)(F)F)nc2c(C(F)(F)F)cccc12)C1CCCCN1 (stereo not drawn) [Mefloquine (hydrochloride)]	1.439

Same assay, conditions: NCI-H292 cells in complete media

Structure (SMILES)	Complete
CCCNS(=O)(=O)Nc1ncnc(OCCOc2ncc(Br)cn2)c1-c1ccc(Br)cc1 [Macitentan]	1.113
Cc1ccc(Cl)c(Nc2ccccc2C(=O)O)c1Cl [Meclofenamate (sodium)]	0.8579
Cc1cccc(Nc2ccccc2C(=O)O)c1C [Mefenamic acid]	1.551
OC(c1cc(C(F)(F)F)nc2c(C(F)(F)F)cccc12)C1CCCCN1 (stereo not drawn) [Mefloquine (hydrochloride)]	0.9523

Same assay, conditions: NCI-H292 cells, FDA drug library screen, cholesterol-free media without statin

Structure (SMILES)	Cholesterol-free
CC1(C)S[C@@H]2[C@H](/N=C/N3CCCCCC3)C(=O)N2[C@H]1C(=O)O [Mecillinam]	0.9011
CN(C)CCC=C1c2ccccc2C(C)(C)c2ccccc21 [Melitracen (hydrochloride)]	1.283

Same assay, conditions: NCI-H292 cells, FDA drug library screen, complete media

Structure (SMILES)	Complete
CC1(C)S[C@@H]2[C@H](/N=C/N3CCCCCC3)C(=O)N2[C@H]1C(=O)O [Mecillinam]	0.7528
CN(C)CCC=C1c2ccccc2C(C)(C)c2ccccc21 [Melitracen (hydrochloride)]	1.187

Same assay, conditions: NCI-H292 cells, cholesterol-free media without statin

Structure (SMILES)	Cholesterol-free
CC(C)OC(=O)C(C(=O)OC(C)C)=C1SC=CS1 [Malotilate]	1.163
OC[C@@H](O)[C@@H](O[C@H]1O[C@H](CO)[C@@H](O)[C@H](O)[C@H]1O)[C@H](O)[C@@H](O)CO [Maltitol]	1.093
CNCCCC12CCC(c3ccccc31)c1ccccc12 [Maprotiline (hydrochloride)]	1.347
Cc1ccc(NC(=O)c2ccc(CN3CCN(C)CC3)cc2)cc1Nc1nc(-c2cccnc2)cs1 [Masitinib]	0.8775
CN1CCc2c(c3ccccc3n2Cc2ccccc2)C1 [Mebhydrolin]	1.813
CC(=O)O[C@]1(C(C)=O)CC[C@H]2[C@@H]3C[C@H](C)C4=CC(=O)CC[C@]4(C)[C@H]3CC[C@@]21C [Medroxyprogesterone acetate]	1.058

Same assay, conditions: NCI-H292 cells, cholesterol-free media without statin, FDA drug library screen

Structure (SMILES)	Cholesterol-free
CN1C(=O)/C(=C2/C(=O)Nc3ccccc32)c2ccccc21 [Meisoindigo]	0.8169
COc1ccc2[nH]cc(CCNC(C)=O)c2c1 [Melatonin]	0.9489

Same assay, conditions: NCI-H292 cells, complete media

Structure (SMILES)	Complete
CC(C)OC(=O)C(C(=O)OC(C)C)=C1SC=CS1 [Malotilate]	0.8568
OC[C@@H](O)[C@@H](O[C@H]1O[C@H](CO)[C@@H](O)[C@H](O)[C@H]1O)[C@H](O)[C@@H](O)CO [Maltitol]	0.7088
CNCCCC12CCC(c3ccccc31)c1ccccc12 [Maprotiline (hydrochloride)]	0.9995
Cc1ccc(NC(=O)c2ccc(CN3CCN(C)CC3)cc2)cc1Nc1nc(-c2cccnc2)cs1 [Masitinib]	0.6881
CN1CCc2c(c3ccccc3n2Cc2ccccc2)C1 [Mebhydrolin]	1.508
CC(=O)O[C@]1(C(C)=O)CC[C@H]2[C@@H]3C[C@H](C)C4=CC(=O)CC[C@]4(C)[C@H]3CC[C@@]21C [Medroxyprogesterone acetate]	0.6058

Same assay, conditions: NCI-H292 cells, complete media, FDA drug library screen

Structure (SMILES)	Complete
CN1C(=O)/C(=C2/C(=O)Nc3ccccc32)c2ccccc21 [Meisoindigo]	1.238
COc1ccc2[nH]cc(CCNC(C)=O)c2c1 [Melatonin]	0.9969

Same assay, conditions: complete vs cholesterol-free media; >0 enhanced anti-cancer activity, about 0 neutral, <0 antagonist

Structure (SMILES)	Difference
CN1C(=O)/C(=C2/C(=O)Nc3ccccc32)c2ccccc21 [Meisoindigo]	0.42

Same assay, conditions: complete vs cholesterol-free media; greater than 0 enhanced anti-cancer activity, about 0 neutral, below 0 antagonists

Structure (SMILES)	Difference
OC[C@@H](O)[C@@H](O[C@H]1O[C@H](CO)[C@@H](O)[C@H](O)[C@H]1O)[C@H](O)[C@@H](O)CO [Maltitol]	−0.38
CNCCCC12CCC(c3ccccc31)c1ccccc12 [Maprotiline (hydrochloride)]	−0.35
CC(=O)O[C@]1(C(C)=O)CC[C@H]2[C@@H]3C[C@H](C)C4=CC(=O)CC[C@]4(C)[C@H]3CC[C@@]21C [Medroxyprogesterone acetate]	−0.45
